{
  "source": "patent US12084411B2",
  "about": "“Hinokitiol analogues, methods of preparing and pharmaceutical compositions thereof” (The Board of Trustees of the University of Illinois, priority 2018, dated 2024)",
  "key": {"[1]": {"test": "Metal efflux from liposomes using PhenGreen", "assay_type": "biochemical", "method": "Hinokitiol-promoted release of different divalent metals from POPC liposomes was performed by tracking the quenching of PhenGreen (Fisher P14312) similar to previously reported (67, 68). […] In all cases, liposomes were prepared using 5 mM of either FeCl2, MnCl2, CoCl2, NiCl2, ZnCl2, or CuCl2 added to the internal buffer. […] The liposome suspension was diluted to 1 mM of phosphorus. The liposome suspension was transferred to a 96-well plate, and either DMSO or 2 μM hinokitiol (from a 40X stock in DMSO) was added at t=2 min. […] After one hour, the liposomes were lysed with Triton-X and the fluorescence was recorded. […] The DMSO-treated and hinokitiol-treated liposomes had similar fluorescence quenching levels after lysis. […] The t1/2 values were calculated using an asymptotic fit in OriginPro. The t1/2 values indicate the time required to reach half of the maximum metal efflux for each metal."}, "[2]": {"tested_on": "FPN1-deficient J774 macrophages", "test": "55Fe release from FPN1-deficient J774 macrophages", "assay_type": "cell-based, mouse", "details": "hepcidin-treated cells", "method": "To knockdown FPN1 levels in wild type J774 cells, the cells were incubated with […] mouse hepcidin (Peptides International PLP-3773-PI) for 1 hour in J774 Complete media similar to previously described (41) before ^55Fe was loaded into J774 cells and ^55Fe release was determined.\nJ774 cells were grown in 12-well plates to ˜80% confluency. The cells were then treated with vehicle or hepcidin in fresh J774 Complete media (1 mL) and incubated at 37° C. for 1 hour. After incubation, the media was aspirated, and then a ^55Fe2Tf (50 nM) solution in J774 Complete media (1 mL) containing vehicle or hepcidin was added. The cells were incubated at 37° C. for 10 minutes, and the media was removed. The cells were rinsed with PBS (×2), and then rinsed with J774 Complete media (1 mL) for 10 minutes at 37° C. […] At the indicated times, aliquots (<100 μL) of the media were removed, diluted in scintillation cocktail, and radioactivity was determined by liquid scintillation counting. […] The cell lysate was diluted in scintillation cocktail and intracellular ^55Fe levels were determined by liquid scintillation counting. The % ^55Fe release was determined by the ratio of extracellular ^55Fe to total (intracellular+ extracellular) ^55Fe at the indicated times."}, "MEL": {"tested_on": "MEL", "test": "WST-8 toxicity in MEL cells", "assay_type": "cell-based, mouse", "details": "MEL cells, three days, 1 μM", "quoted_text": "(§1) Determination of small molecule-mediated toxicity in Caco-2, MEL, and/or J774 cells was performed according to manufacturer instructions using a WST-8 kit (Cayman Chemical 10010199) similar to previously reported (76) using a 1000× stock of the indicated small molecule in DMSO to give the indicated final concentration."}, "[3]": {"test": "Single-dose in vivo pharmacokinetics of hinokitiol in mice", "details": "100 mg/kg", "method": "FIGS. 29A-29B show single-dose in vivo pharmacokinetics of hinokitiol in mice. Mice were mixed C57BL/6 and 129/Sv background (2-3 mo. old) were administered various concentrations of hinokitiol (30 or 100 mg Hino/kg body weight) by two different routes (A) intraperitoneal injection and (B) oral gavage. Plasma samples were collected at various timepoints (5-360 minutes) for drug measurement by HPLC.\nIn addition to evaluating the pharmacodynamics (effect) of hinokitiol in Al, the pharmacokinetics of hinokitiol were characterized to guide the optimal dose scheme for treatment."}, "normal Caco-2 monolayers": {"tested_on": "normal Caco-2 monolayers", "test": "Transepithelial iron transport in normal Caco-2 monolayers", "assay_type": "cell-based, Human", "details": "same concentration as in deficient system", "quoted_text": "Media from differentiated Caco-2 monolayers (P25-50, 21-28 days post seeding) grown on PET inserts in 6-well plates was aspirated, and monolayers were rinsed with PBS. […] The monolayers were then incubated for four hours at 37° C. unless otherwise noted. A 100 μL aliquot of the basolateral fluid was removed, diluted in scintillation cocktail, and radioactivity was determined on a liquid scintillation counter to quantify relative amounts of ^55Fe transport. To determine intracellular ^55Fe, the basolateral and apical media was removed, and the monolayer was rinsed with PBS (×2). The cells were then lysed with 500 μL of 200 mM NaOH with nutator mixing overnight, and radioactivity was determined on a liquid scintillation counter after diluting the cell lysate in scintillation cocktail. All values were normalized to shControl monolayers unless otherwise noted. Absolute iron levels were determined through calibration of ^55Fe radioactivity levels with known standards and average mg of protein per membrane was determined by protein lysis with RIPA buffer containing protease inhibitors and quantified through a BCA kit according to manufacturer instructions."}, "transferrin": {"target": "transferrin (Homo sapiens, UniProt P02787)", "sequence (P02787 20-698, species assumed)": "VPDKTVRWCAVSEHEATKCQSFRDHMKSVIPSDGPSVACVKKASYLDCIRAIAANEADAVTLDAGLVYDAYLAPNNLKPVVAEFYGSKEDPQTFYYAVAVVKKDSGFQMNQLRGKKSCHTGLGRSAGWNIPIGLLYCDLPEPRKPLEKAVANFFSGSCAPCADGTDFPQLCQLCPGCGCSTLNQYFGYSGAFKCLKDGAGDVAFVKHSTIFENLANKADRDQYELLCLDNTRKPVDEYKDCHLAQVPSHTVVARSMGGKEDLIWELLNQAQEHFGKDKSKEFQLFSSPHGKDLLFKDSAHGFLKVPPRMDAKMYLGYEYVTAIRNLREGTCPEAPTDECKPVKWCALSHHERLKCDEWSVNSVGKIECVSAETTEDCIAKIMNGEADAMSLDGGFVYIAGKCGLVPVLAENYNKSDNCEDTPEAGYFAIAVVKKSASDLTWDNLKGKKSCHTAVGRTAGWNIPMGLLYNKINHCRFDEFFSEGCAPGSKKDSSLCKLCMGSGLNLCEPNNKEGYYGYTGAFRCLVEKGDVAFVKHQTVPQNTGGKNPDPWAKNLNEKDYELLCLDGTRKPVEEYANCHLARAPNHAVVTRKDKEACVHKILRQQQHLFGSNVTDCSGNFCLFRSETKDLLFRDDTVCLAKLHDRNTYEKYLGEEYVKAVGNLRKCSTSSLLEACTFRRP", "test": "Removal of 55Fe from transferrin", "assay_type": "biochemical", "details": "buffered solution, 1 nM transferrin", "method": "The capacity for hinokitiol to remove iron from transferrin was determined through a ^55Fe assay adapted from Cerami and coworkers (62). ^55Fe was loaded onto transferrin (Tf) similar to previously described in PBS buffer (63). Increasing hinokitiol doses (from 1000X stocks in DMSO) were added to a solution of ^55Fe2Tf (1 nM) in PBS buffer to give the final indicated concentrations. The solution was incubated at 37° C. for 3 hours. After incubation, any ^55Fe bound to hinokitiol was isolated by extraction of iron:hinokitiol complexes with EtOAc. The radioactive levels in the organic layer were determined after dilution in scintillation cocktail."}, "[4]": {"test": "WST-8 toxicity in J774 cells", "assay_type": "cell-based, mouse", "details": "mouse, wild type J774 cells; Wild Type J774, WST-8 assay after ≥24 hours of incubation", "quoted_text": "as §1"}, "J774": {"tested_on": "J774", "test": "WST-8 toxicity in J774 cells", "assay_type": "cell-based, mouse", "details": "J774 macrophages", "quoted_text": "as §1"}, "[5]": {"test": "WST-8 toxicity in Caco-2 cells", "details": "human", "quoted_text": "as §1"}, "[6]": {"test": "Determination of the pKa of hinokitiol", "assay_type": "physicochemical", "details": "0.1 M KCl solution in water, spectrophotometric titration", "method": "The pKa of hinokitiol was determined by spectrophotometric titration with varying pH. Hinokitiol (100 μM) was dissolved in a 0.1 M KCl solution in H2O and acidified to pH=3.0 (using 0.1 M HCl). The UV-Vis spectrum was repeatedly obtained upon sequential titration of 0.1 M KOH to obtain a range of pHs (3.0, 3.4, 3.9, 4.2, 4.6, 4.9, 6.0, 6.4, 7.0, 7.2, 7.6, 8.4, 9.3, 9.7, 10.4, 10.9, 11.7, 12.0)."}, "fet3Δftr1Δ yeast [7]": {"tested_on": "fet3Δftr1Δ yeast", "test": "Sustainability assay", "assay_type": "cell-based, Saccharomyces cerevisiae", "details": "10 μM hinokitiol, 10 μM FeCl3", "method": "Sustainable hinokitiol-promoted growth restoration of fet3Δftr1Δ yeast was performed similar to previously reported (20) by inoculation of hinokitiol-rescued yeast from low iron SD-agar plates containing 10 μM hinokitiol and 10 μM FeCl3 into low iron SD liquid media containing 10 μM hinokitiol and 10 μM FeCl3, then streaking of the yeast suspension (diluted to OD600 of 0.1) onto agar plates. This process was repeated for >100 days. Continued reliance of fet3Δftr1Δ yeast growth on hinokitiol was observed, as removal of hinokitiol from the SD-agar plates led to no fet3Δftr1Δ yeast cell growth."}, "[8]": {"test": "Exchangeability of ferric iron bound to hinokitiol", "assay_type": "physicochemical", "method": "The reversible exchange of ferric iron bound to hinokitiol was determined similar to previously described (69). […] The solution was equilibrated for 1 hour at 37° C., and then an equal amount of ^55FeCl3 (100 nM) was added. The solution was incubated at 37° C., and at the indicated time points an aliquot was taken and added to water. The iron-hinokitiol complex was immediately separated from unbound iron through extraction with ethyl acetate and the radioactive counts were determined by scintillation counting."}, "fet3Δftr1Δ yeast [9]": {"tested_on": "fet3Δftr1Δ yeast", "test": "Growth rescue of iron-deficient yeast with small molecules on agar plates", "assay_type": "cell-based, Saccharomyces cerevisiae", "details": "low iron SD-agar plates, 10 μM FeCl3"}},
  "data": [
    {"smiles": "CC(C)c1cccc(=O)c(O)c1", "note": "[hinokitiol]", "values": [
      {"measurement": "Cu^II transport rate relative to Fe^II in liposomes", "setting": "[1]", "value": 80, "unit": "fold"},
      {"measurement": "iron release", "setting": "[2]", "value": "time- and dose-dependently restored iron release"},
      {"measurement": "observable toxicity", "setting": "MEL", "value": "without observable toxicity"},
      {"measurement": "half-life", "setting": "[3]", "value": "increased half-life"},
      {"measurement": "effect on transepithelial iron transport in wild type system", "setting": "normal Caco-2 monolayers", "value": "negligible effects"},
      {"measurement": "excess of hinokitiol relative to transferrin needed to remove iron", "setting": "transferrin", "value": "> 1,000 fold"},
      {"measurement": "EC90", "setting": "[4]", "value": "> 100", "unit": "µM"},
      {"measurement": "observable toxicity", "setting": "J774", "value": "without observable toxicity"},
      {"measurement": "EC90", "setting": "[5]", "value": "> 100", "unit": "µM"},
      {"measurement": "pKa", "setting": "[6]", "value": 7.33},
      {"measurement": "time over which growth restoration is sustained", "setting": "fet3Δftr1Δ yeast [7]", "value": "> 100", "unit": "days"},
      {"measurement": "time to equilibrium between 55Fe- and 56Fe-hinokitiol complex", "setting": "[8]; 10 mM Mes/Tris, pH 7.0", "value": "within one hour"},
      {"measurement": "exchange of bound 56Fe with 55Fe in solution", "setting": "[8]; within 10 minutes, pH 7.0, 37° C.", "value": "> 20", "unit": "%"},
      {"measurement": "growth rescue of fet3Δftr1Δ yeast", "setting": "fet3Δftr1Δ yeast [9]", "value": "highly effective"}
    ]}
  ]
}
